The text below walks through data of patent publication US20060135491A1, “Vitamin D3 analog useful for the treatment of osteoporosis” (priority 2004, published 2006).

One data set concerns NMRI mice. Nature of the data set: In vivo determination of calcium levels. The following applies: for Body Weight / Femur Ca / Serum Ca: 7 consecutive days.
The next data set concerns HL-60 cells. The data set is described as follows: Cell differentiation, NBT reduction assay. Type of data set: cell-based. To be noted: in comparison with 1α,25(OH)2D3 as control (100% activity); 4 days. On the procedure:
The vitamin D analog of the present invention was evaluated for its effect on cell differentiation. Falcon tissue chambers were seeded with 4×10^4 cells/cm of HL-60 cells using RPMI 1640 medium supplemented with […] FCS and gentamycin (50 μg/mL),in a final cell volume of 5 mL. The cultures were maintained at 37° C. in an atmosphere of humidified air containing 5% CO2. After 24 hours incubation, the control 1αa,25(OH)2D3 and the compound to be tested were each dissolved in ethanol and added to the cell culture with the final concentration being less than 0.2%. After 4 days, the dishes were shaken to lose adherent cells. The cells were then washed twice in RPMI medium, counted, and then assayed for differentiation markers (NBT reduction assay). Superoxide production was measured as NBT reducing activity as described by Ostrem et al. in Proc. Natl. Acad. Sci. USA, (1987) 84: 2610-2614. HL-60 cells at 1×10^6/mL were mixed with an equal volume of freshly prepared solution of phorbol 12-myristate 13-acetate (200 ng/mL) and NBT (2 μg/mL) and incubated for 30 minutes at 37° C. The percentage of cells containing black formazan deposits was determined using a hemacytometer. […]

For the next data set, the target named is T1, Vitamin D receptor (VDR) (Sus scrofa, UniProt A3RGC1).
T1 sequence (A3RGC1 1-427): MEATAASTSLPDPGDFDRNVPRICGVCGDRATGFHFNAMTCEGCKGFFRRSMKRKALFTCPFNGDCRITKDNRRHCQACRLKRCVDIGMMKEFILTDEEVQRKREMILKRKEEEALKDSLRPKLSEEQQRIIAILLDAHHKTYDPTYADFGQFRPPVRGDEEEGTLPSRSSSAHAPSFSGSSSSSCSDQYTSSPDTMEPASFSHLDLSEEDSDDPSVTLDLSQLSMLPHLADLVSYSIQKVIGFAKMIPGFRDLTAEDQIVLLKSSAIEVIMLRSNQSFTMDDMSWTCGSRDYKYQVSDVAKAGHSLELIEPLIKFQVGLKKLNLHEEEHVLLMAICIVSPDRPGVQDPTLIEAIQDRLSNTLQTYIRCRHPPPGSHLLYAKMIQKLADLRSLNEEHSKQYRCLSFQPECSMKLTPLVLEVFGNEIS
The following applies: relative affinity at 50% displacement of [3H]1α,25(OH)2D3; 1α,25(OH)2D3 assigned 100%; porcine intestinal mucosa supernatant, 4° C., 20 hours. On the technique in general: Loss of bound radioactivity is the signal in a displacement assay; it reports binding, not function.

Data set [1] deals with ovariectomized Sprague-Daley rats. Nature of the data set: Three-month treatment efficacy in ovariectomized rats. Type of data set: in vivo. To be noted: oral. The method, then:
Efficacy was tested in 6 month old Sprague-Daley rats which were sham-operated or ovariectomized (OVX). Ovariectomized animals were sacrificed after two months as a pre-treatment control group, with remaining animals being treated for three months with vehicle or with (1R,3R)-5-{(E)-(2R,5R)-2-[2-(4-hydroxy-4-methylpentyl)-spiro[4.5]dec-7-ylidene]-ethylidene}-cyclohexane-1,3-diol (at dosages of 0.3, 1,3 or 10 μg/kg/day respectively) by oral administration. At the end of treatment, blood was obtained by cardiac puncture for evaluation of serum calcium levels. Hypercalcemia was identified as a mean value 10% greater than the OVX-vehicle group. Bone efficacy was measured using micro-CT (Scanco μCT 40) evaluation of the vertebral cancellous bone volume compared to either the final OVX-group and/or the pre-treatment OVX group.

The test system of another data set is MCF-7 cells. The data set is described as follows: Cell proliferation, [3H]thymidine incorporation. The following applies: in comparison with 1α,25(OH)2D3 as control (100% activity); 72 hours incubation. The format is cell-based. The method, then:
The compound of the present invention was evaluated for its effect on cell proliferation. […] The cultures were maintained at 37° C. in an atmosphere of humidified air containing 5% CO2. The MCF-7 cells were seeded at approximately 5×10^3 cells/well in the DMEM modified medium in a 96-well microtiter plate. […] Finally, 1 μCi of [^3H]thymidine was added to each well and the cells were harvested after a further 4 hour incubation period. The cells were harvested with a Packard Harvester and the cell count measured by a Packard Topcount System.
(In general: Incorporation of labelled thymidine or its analogues reports DNA synthesis.)

The target in data set [2] is T2, Human Vitamin D Binding Protein (hDBP) (Homo sapiens, UniProt P02774).
T2 sequence (P02774 17-474): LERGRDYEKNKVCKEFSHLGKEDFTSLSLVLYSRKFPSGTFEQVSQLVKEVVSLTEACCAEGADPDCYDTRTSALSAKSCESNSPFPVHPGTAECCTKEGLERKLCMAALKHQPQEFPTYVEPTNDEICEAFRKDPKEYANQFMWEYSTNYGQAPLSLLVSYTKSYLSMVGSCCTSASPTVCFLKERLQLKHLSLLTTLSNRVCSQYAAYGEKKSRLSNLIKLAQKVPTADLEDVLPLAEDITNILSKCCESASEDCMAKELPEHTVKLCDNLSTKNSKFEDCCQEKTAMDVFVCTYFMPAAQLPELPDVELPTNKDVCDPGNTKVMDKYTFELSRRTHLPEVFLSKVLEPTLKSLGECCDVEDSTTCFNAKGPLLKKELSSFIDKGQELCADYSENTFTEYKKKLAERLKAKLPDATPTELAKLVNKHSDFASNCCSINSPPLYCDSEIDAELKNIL
Nature of the data set: Affinity for human vitamin D binding protein, displacement of [3H]1α,25(OH)2D3. The following applies: relative affinity at 50% displacement of [3H]1α,25(OH)2D3; 1α,25(OH)2D3 assigned 100%; hDBP 0.18 μM, 3 hours at 4° C. The method, then:
The solution was incubated for 3 hours at 4° C. Final phase separation was obtained by adding 0.5 mL of cold dextran-coated charcoal.

Method for NMRI mice: Eight week old, male NMRI mice were obtained from the Animal Center of Leuven (Belgium) and fed a vitamin D-replete diet (0.2% calcium, 1% phosphate, 2000 U vitamin D/kg; Hope Farms, Woerden, The Netherlands). […] The control group was injected with vehicle (arachis oil). […] The following parameters were evaluated: serum calcium and femur calcium. Serum calcium was measured by a microcolorimetric assay (Sigma, St. Louis, Mo.). Femurs were removed and femur calcium content was measured in HCl-dissolved bone ash (obtained by heating for 24 hours in an oven at 100° C.), using the same technique as for serum calcium.

`C=C1/C(=C\C=C2/CCC[C@]3(C)[C@@H]([C@H](C)CCCC(C)(C)O)CC[C@@H]23)C[C@@H](O)C[C@@H]1O` [1α,25(OH)2D3, 1α,25-dihydroxyvitamin D3]: in the data set on NMRI mice (0.1 μg/kg/day i.p.), the “Body Weight” value came out at 30.5 g, the “Femur Ca” value is on record as 10.9 mg and the “Serum Ca” value came to 13.3 mg/dL. Besides, in the data set on NMRI mice (0.2 μg/kg/day i.p.), the “Body Weight” value is reported as 27.8 g, the “Femur Ca” value is 10.3 mg and the “Serum Ca” value was found to be 14.1 mg/dL. Moreover, in the data set with NMRI mice (0.4 μg/kg/day i.p.), the “Body Weight” value is 23.2 g, the “Femur Ca” value amounted to 8.9 mg and the “Serum Ca” value worked out at 18.2 mg/dL. The “estimated serum calcium level as compared with 1α,25(OH)2D3” value with NMRI mice (1α,25(OH)2D3 assigned a value of 100%, i.p., 7 days) is reported as 100%. In the data set with HL-60 cells, the “HL-60 cell differentiation, percentage activity (at 50% of the dose response)” value came out at 100%.
As to `CC(C)(O)CCC[C@@H]1CC[C@]2(CCC/C(=C\C=C3C[C@@H](O)C[C@H](O)C3)C2)C1` [(1R,3R)-5-{(E)-(2R, 5R)-2-[2-(4-hydroxy-4-methylpentyl)-spiro[4.5]dec-7-ylidene]-ethylidene}-cyclohexane-1,3-diol], the “% VDR binding” value at Vitamin D receptor (VDR) was determined as 10%. The “vertebral cancellous bone volume (micro-CT)” value in data set [1] (OVX rats, three months, 0.3, 1,3 or 10 μg/kg/day, vs pre-treatment and final OVX groups) was “significantly increase vertebral bone volume above pre-treatment and final OVX groups”. The “hypercalcemia (mean serum calcium 10% greater than OVX-vehicle group)” value in data set [1] (three months, at doses that increased vertebral bone volume) was “did not induce hypercalcemia”. The “MCF-7 cell proliferation, percentage activity (at 50% of the dose response)” value in the data set on MCF-7 cells is 450%. The “Femur Ca” value with NMRI mice (0.4 μg/kg/day i.p.) turned out to be 10.1 mg; in the data set on NMRI mice (5 μg/kg/day i.p.), 11.3 mg; in the data set on NMRI mice (10 μg/kg/day i.p.), 12.3 mg. Also, the “HL-60 cell differentiation, percentage activity (at 50% of the dose response)” value in the data set with HL-60 cells turned out to be 200%. Also, in data set [2], the “% hDBP binding” value was 3%.
